Source: PubChem BioAssay (NCI)
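Five concentrations, 48 hours, 96-well plates. GI50 is the concentration that inhibits growth by half. Definition used: TGI = concentration required for complete inhibition of growth.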

What follows are compounds tested on BT-549 breast (assay: NCI tumour cell line growth inhibition, 48 h).

Compound FC(F)(F)c1cc(Cl)cnc1N/N=C(/c1ccccc1)c1ccccn1 has a TGI of 36.4 µM.

Each compound was assayed on MDA-MB-231 breast (assay: NCI tumour cell line growth inhibition, 48 h).

Compared with O=[N+]([O-])/C(C(Cl)=C(Cl)Cl)=C(\SCc1ccccc1)N1CCCCC1, CCCN=C1CCN(Cc2ccccc2)c2ccccc2N1 is 1.6-fold higher in TGI: 37.3 µM for the first, 59.9 µM for the second.

First: O=C1CC(c2ccc3c(c2)OCO3)Nc2ccccc21 (configuration not stated)
Second: CCC(CO)Nc1nc2ccc(Cl)cc2c2ccccc12 (configuration not stated)
The TGI of the first is 2.3-fold higher: 36.5 µM for the first, 15.9 µM for the second.

With FC(F)(F)c1cc(Cl)cnc1N/N=C(/c1ccccc1)c1ccccn1 the TGI was 40.2 µM.

Compared with O=C1CC(c2ccc3c(c2)OCO3)Nc2ccccc21 (configuration not stated), CCC(CO)Nc1nc2ccc(Cl)cc2c2ccccc12 (configuration not stated) is 1.6-fold lower in GI50: 8.06 µM for the first, 4.9 µM for the second.

Each compound was assayed on 786-0 renal (assay: NCI tumour cell line growth inhibition, 48 h).

Compared with O=[N+]([O-])/C(C(Cl)=C(Cl)Cl)=C(\SCc1ccccc1)N1CCCCC1, CCCN=C1CCN(Cc2ccccc2)c2ccccc2N1 is higher in TGI: 36.3 µM for the first, over 100 µM for the second.

First: O=C1CC(c2ccc3c(c2)OCO3)Nc2ccccc21 (configuration not stated)
Second: CCC(CO)Nc1nc2ccc(Cl)cc2c2ccccc12 (configuration not stated)
The TGI of the first is 2-fold higher: 40.2 µM for the first, 20.1 µM for the second.

With FC(F)(F)c1cc(Cl)cnc1N/N=C(/c1ccccc1)c1ccccn1 the TGI was 16.4 µM.

O=C1CC(c2ccc3c(c2)OCO3)Nc2ccccc21 (configuration not stated) and CCC(CO)Nc1nc2ccc(Cl)cc2c2ccccc12 (configuration not stated) are within 1.5-fold of each other in GI50: 8.11 µM for the first, 7.37 µM for the second.

What follows are compounds tested on SF-539 CNS (assay: NCI tumour cell line growth inhibition, 48 h).

Compared with O=[N+]([O-])/C(C(Cl)=C(Cl)Cl)=C(\SCc1ccccc1)N1CCCCC1, O=C1CC(c2ccc3c(c2)OCO3)Nc2ccccc21 (configuration not stated) is 1.9-fold lower in TGI: 46 µM for the first, 24 µM for the second.

Compared with CCC(CO)Nc1nc2ccc(Cl)cc2c2ccccc12 (configuration not stated), FC(F)(F)c1cc(Cl)cnc1N/N=C(/c1ccccc1)c1ccccn1 is 1.7-fold lower in TGI: 22.2 µM for the first, 12.9 µM for the second.

O=C1CC(c2ccc3c(c2)OCO3)Nc2ccccc21 (configuration not stated) and CCC(CO)Nc1nc2ccc(Cl)cc2c2ccccc12 (configuration not stated) are within 1.5-fold of each other in GI50: 10.8 µM for the first, 10.4 µM for the second.

Each compound was assayed on MDA-N (assay: NCI tumour cell line growth inhibition, 48 h).

Going from O=[N+]([O-])/C(C(Cl)=C(Cl)Cl)=C(\SCc1ccccc1)N1CCCCC1 to CCCN=C1CCN(Cc2ccccc2)c2ccccc2N1, the TGI rises from 50.3 µM to over 100 µM.

FC(F)(F)c1cc(Cl)cnc1N/N=C(/c1ccccc1)c1ccccn1 showed a TGI of over 100 µM.

What follows are compounds tested on NCI/ADR-RES ovarian (assay: NCI tumour cell line growth inhibition, 48 h).

CCCN=C1CCN(Cc2ccccc2)c2ccccc2N1 and O=C1CC(c2ccc3c(c2)OCO3)Nc2ccccc21 (configuration not stated) are within 1.5-fold of each other in TGI: 34.4 µM for the first, 39.9 µM for the second.

Compared with CCC(CO)Nc1nc2ccc(Cl)cc2c2ccccc12 (configuration not stated), FC(F)(F)c1cc(Cl)cnc1N/N=C(/c1ccccc1)c1ccccn1 is 3.2-fold lower in TGI: 21.4 µM for the first, 6.76 µM for the second.

First: O=C1CC(c2ccc3c(c2)OCO3)Nc2ccccc21 (configuration not stated)
Second: CCC(CO)Nc1nc2ccc(Cl)cc2c2ccccc12 (configuration not stated)
The GI50 of the first is 2-fold higher: 11.8 µM for the first, 5.95 µM for the second.

What follows are compounds tested on A498 renal (assay: NCI tumour cell line growth inhibition, 48 h).

Compared with O=[N+]([O-])/C(C(Cl)=C(Cl)Cl)=C(\SCc1ccccc1)N1CCCCC1, CCCN=C1CCN(Cc2ccccc2)c2ccccc2N1 is 2.8-fold lower in TGI: 70.1 µM for the first, 25.4 µM for the second.

Going from O=C1CC(c2ccc3c(c2)OCO3)Nc2ccccc21 (configuration not stated) to CCC(CO)Nc1nc2ccc(Cl)cc2c2ccccc12 (configuration not stated), the TGI falls from 28.7 µM to 16 µM (1.8-fold).

Compared with O=C1CC(c2ccc3c(c2)OCO3)Nc2ccccc21 (configuration not stated), CCC(CO)Nc1nc2ccc(Cl)cc2c2ccccc12 (configuration not stated) is 2.9-fold lower in GI50: 13.4 µM for the first, 4.6 µM for the second.

These compounds were tested on HL-60(TB) leukemia (assay: NCI tumour cell line growth inhibition, 48 h).

O=[N+]([O-])/C(C(Cl)=C(Cl)Cl)=C(\SCc1ccccc1)N1CCCCC1 and CCCN=C1CCN(Cc2ccccc2)c2ccccc2N1 are within 1.5-fold of each other in TGI: 29.6 µM for the first, 37.3 µM for the second.

Going from O=C1CC(c2ccc3c(c2)OCO3)Nc2ccccc21 (configuration not stated) to CCC(CO)Nc1nc2ccc(Cl)cc2c2ccccc12 (configuration not stated), the TGI falls from over 100 µM to 63.3 µM.

Compared with O=C1CC(c2ccc3c(c2)OCO3)Nc2ccccc21 (configuration not stated), CCC(CO)Nc1nc2ccc(Cl)cc2c2ccccc12 (configuration not stated) is 2.4-fold higher in GI50: 3.16 µM for the first, 7.62 µM for the second.

Each compound was assayed on IGROV1 ovarian (assay: NCI tumour cell line growth inhibition, 48 h).

Going from O=[N+]([O-])/C(C(Cl)=C(Cl)Cl)=C(\SCc1ccccc1)N1CCCCC1 to CCCN=C1CCN(Cc2ccccc2)c2ccccc2N1, the TGI falls from 57.1 µM to 19.5 µM (2.9-fold).

Going from O=C1CC(c2ccc3c(c2)OCO3)Nc2ccccc21 (configuration not stated) to CCC(CO)Nc1nc2ccc(Cl)cc2c2ccccc12 (configuration not stated), the TGI falls from 47.8 µM to 23.5 µM (2-fold).

Work on FC(F)(F)c1cc(Cl)cnc1N/N=C(/c1ccccc1)c1ccccn1 yielded a TGI of 5.59 µM.

O=C1CC(c2ccc3c(c2)OCO3)Nc2ccccc21 (configuration not stated) and CCC(CO)Nc1nc2ccc(Cl)cc2c2ccccc12 (configuration not stated) are within 1.5-fold of each other in GI50: 10.9 µM for the first, 11.2 µM for the second.

The compounds below were run on EKVX NSCLC (assay: NCI tumour cell line growth inhibition, 48 h).

O=[N+]([O-])/C(C(Cl)=C(Cl)Cl)=C(\SCc1ccccc1)N1CCCCC1 and CCCN=C1CCN(Cc2ccccc2)c2ccccc2N1 cannot be ordered by TGI: over 100 µM for the first, over 100 µM for the second.

Compared with O=C1CC(c2ccc3c(c2)OCO3)Nc2ccccc21 (configuration not stated), CCC(CO)Nc1nc2ccc(Cl)cc2c2ccccc12 (configuration not stated) is 2.3-fold lower in TGI: 46.4 µM for the first, 20.2 µM for the second.

For FC(F)(F)c1cc(Cl)cnc1N/N=C(/c1ccccc1)c1ccccn1, the TGI was 4.97 µM.

Going from O=C1CC(c2ccc3c(c2)OCO3)Nc2ccccc21 (configuration not stated) to CCC(CO)Nc1nc2ccc(Cl)cc2c2ccccc12 (configuration not stated), the GI50 falls from 11.8 µM to 6.23 µM (1.9-fold).

Each compound was assayed on NCI-H522 lung (assay: NCI tumour cell line growth inhibition, 48 h).

O=[N+]([O-])/C(C(Cl)=C(Cl)Cl)=C(\SCc1ccccc1)N1CCCCC1 and CCCN=C1CCN(Cc2ccccc2)c2ccccc2N1 are within 1.5-fold of each other in TGI: 39 µM for the first, 27.9 µM for the second.

Going from O=C1CC(c2ccc3c(c2)OCO3)Nc2ccccc21 (configuration not stated) to CCC(CO)Nc1nc2ccc(Cl)cc2c2ccccc12 (configuration not stated), the TGI falls from 38.8 µM to 21.5 µM (1.8-fold).

With FC(F)(F)c1cc(Cl)cnc1N/N=C(/c1ccccc1)c1ccccn1 the TGI was 8.31 µM.

Going from O=C1CC(c2ccc3c(c2)OCO3)Nc2ccccc21 (configuration not stated) to CCC(CO)Nc1nc2ccc(Cl)cc2c2ccccc12 (configuration not stated), the GI50 falls from 12.9 µM to 8.42 µM (1.5-fold).

These compounds were tested on HCC-2998 colon (assay: NCI tumour cell line growth inhibition, 48 h).

First: O=[N+]([O-])/C(C(Cl)=C(Cl)Cl)=C(\SCc1ccccc1)N1CCCCC1
Second: O=C1CC(c2ccc3c(c2)OCO3)Nc2ccccc21 (configuration not stated)
The TGI of the first is 1.5-fold higher: 45.7 µM for the first, 30.4 µM for the second.

Compared with CCC(CO)Nc1nc2ccc(Cl)cc2c2ccccc12 (configuration not stated), FC(F)(F)c1cc(Cl)cnc1N/N=C(/c1ccccc1)c1ccccn1 is higher in TGI: 10.6 µM for the first, over 100 µM for the second.

First: O=C1CC(c2ccc3c(c2)OCO3)Nc2ccccc21 (configuration not stated)
Second: CCC(CO)Nc1nc2ccc(Cl)cc2c2ccccc12 (configuration not stated)
The GI50 of the first is 5.6-fold higher: 15.8 µM for the first, 2.82 µM for the second.

These compounds were tested on DU-145 prostate (assay: NCI tumour cell line growth inhibition, 48 h).

O=[N+]([O-])/C(C(Cl)=C(Cl)Cl)=C(\SCc1ccccc1)N1CCCCC1 and CCCN=C1CCN(Cc2ccccc2)c2ccccc2N1 cannot be ordered by TGI: over 100 µM for the first, over 100 µM for the second.

Going from O=C1CC(c2ccc3c(c2)OCO3)Nc2ccccc21 (configuration not stated) to CCC(CO)Nc1nc2ccc(Cl)cc2c2ccccc12 (configuration not stated), the TGI rises from 12.6 µM to 25.4 µM (2-fold).

FC(F)(F)c1cc(Cl)cnc1N/N=C(/c1ccccc1)c1ccccn1 showed a TGI of over 100 µM.

Going from O=C1CC(c2ccc3c(c2)OCO3)Nc2ccccc21 (configuration not stated) to CCC(CO)Nc1nc2ccc(Cl)cc2c2ccccc12 (configuration not stated), the GI50 rises from 3.1 µM to 12.8 µM (4.1-fold).

The compounds below were run on SR leukemia (assay: NCI tumour cell line growth inhibition, 48 h).

O=[N+]([O-])/C(C(Cl)=C(Cl)Cl)=C(\SCc1ccccc1)N1CCCCC1 and O=C1CC(c2ccc3c(c2)OCO3)Nc2ccccc21 (configuration not stated) cannot be ordered by TGI: over 100 µM for the first, over 100 µM for the second.

For CCC(CO)Nc1nc2ccc(Cl)cc2c2ccccc12 (configuration not stated), the TGI was 13.5 µM.

First: O=C1CC(c2ccc3c(c2)OCO3)Nc2ccccc21 (configuration not stated)
Second: CCC(CO)Nc1nc2ccc(Cl)cc2c2ccccc12 (configuration not stated)
The GI50 of the first is 2.9-fold higher: 4.56 µM for the first, 1.57 µM for the second.

These compounds were tested on UACC-257 melanoma (assay: NCI tumour cell line growth inhibition, 48 h).

First: O=[N+]([O-])/C(C(Cl)=C(Cl)Cl)=C(\SCc1ccccc1)N1CCCCC1
Second: CCCN=C1CCN(Cc2ccccc2)c2ccccc2N1
The TGI of the first is 2.6-fold higher: 77.2 µM for the first, 29.2 µM for the second.

Going from O=C1CC(c2ccc3c(c2)OCO3)Nc2ccccc21 (configuration not stated) to CCC(CO)Nc1nc2ccc(Cl)cc2c2ccccc12 (configuration not stated), the TGI falls from over 60.4 µM to 28.6 µM.

FC(F)(F)c1cc(Cl)cnc1N/N=C(/c1ccccc1)c1ccccn1 was tested, and the TGI was 16.5 µM.

First: O=C1CC(c2ccc3c(c2)OCO3)Nc2ccccc21 (configuration not stated)
Second: CCC(CO)Nc1nc2ccc(Cl)cc2c2ccccc12 (configuration not stated)
The GI50 of the first is 1.7-fold higher: 26.4 µM for the first, 15.3 µM for the second.

These compounds were tested on HCT-116 colon (assay: NCI tumour cell line growth inhibition, 48 h).

Compared with O=[N+]([O-])/C(C(Cl)=C(Cl)Cl)=C(\SCc1ccccc1)N1CCCCC1, CCCN=C1CCN(Cc2ccccc2)c2ccccc2N1 is higher in TGI: 31.3 µM for the first, over 100 µM for the second.

O=C1CC(c2ccc3c(c2)OCO3)Nc2ccccc21 (configuration not stated) and CCC(CO)Nc1nc2ccc(Cl)cc2c2ccccc12 (configuration not stated) are within 1.5-fold of each other in TGI: 23.9 µM for the first, 22.7 µM for the second.

FC(F)(F)c1cc(Cl)cnc1N/N=C(/c1ccccc1)c1ccccn1 was tested, and the TGI was 19.2 µM.

O=C1CC(c2ccc3c(c2)OCO3)Nc2ccccc21 (configuration not stated) and CCC(CO)Nc1nc2ccc(Cl)cc2c2ccccc12 (configuration not stated) are within 1.5-fold of each other in GI50: 10.2 µM for the first, 10.8 µM for the second.

Each compound was assayed on NCI-H226 lung (assay: NCI tumour cell line growth inhibition, 48 h).

Going from O=[N+]([O-])/C(C(Cl)=C(Cl)Cl)=C(\SCc1ccccc1)N1CCCCC1 to CCCN=C1CCN(Cc2ccccc2)c2ccccc2N1, the TGI rises from 53.2 µM to 96.1 µM (1.8-fold).
